Results as given in patent publication US20240124524A1, “Agonist of Tacr2” (University of Copenhagen, priority 2019, published 2024).
Like-named read-outs stand apart in the source and are kept apart here.

Tests used:
human brown adipose = settings: cited from earlier work
mTacr2 [1] = target: T1, mTacr2 (Mus musculus, UniProt P30549); assay: IP3 assay in transfected HEK293 cells; assay type: cell-based
T1 construct: host or cells: HEK293
T1 sequence (P30549 1-384): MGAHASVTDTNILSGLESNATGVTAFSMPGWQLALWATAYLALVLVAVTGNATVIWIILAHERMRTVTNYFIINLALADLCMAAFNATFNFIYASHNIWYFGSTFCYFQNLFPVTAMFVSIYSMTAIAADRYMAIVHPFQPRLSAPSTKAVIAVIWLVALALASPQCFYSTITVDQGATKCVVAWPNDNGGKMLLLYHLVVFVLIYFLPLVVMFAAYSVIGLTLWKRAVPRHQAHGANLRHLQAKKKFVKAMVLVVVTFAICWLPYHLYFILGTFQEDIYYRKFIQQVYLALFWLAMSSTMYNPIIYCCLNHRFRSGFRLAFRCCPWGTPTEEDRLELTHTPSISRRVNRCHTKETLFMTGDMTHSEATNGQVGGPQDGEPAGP
Method: (§1) HEK293 cells were transiently transfected with plasmid (pcDNA3.1, Genscript, NJ, USA) encoding human or mouse Tacr1-3 using Lipofectamine 2000 (Thermo Fisher, Denmark). After six hours of transfection, cells were loaded with 5 μCi myo-[3H]inositol (Perkin Elmer, Denmark) in full maintenance and cultured overnight. […] After treatment, cells were extracted with 10 mM formic acid and cell membranes were captured using poly-L-lysine coated SPA beads (Perkin Elmer, Denmark), and analyzed on Top Counter (Perkin Elmer, Denmark).
(§2) Data was analyzed using GraphPad Prism 7 (GraphPad, CA, USA),using 4 parametric logistic curve fitting. The data analysis included calculation of the top value, the bottom value, the hill slope as well as the log EC50.

mTacr2 [2] = target: T1, mTacr2; assay: IP3 assay with 0.2% or 2% BSA (BSA binding); assay type: cell-based; settings: for EC50: printed as log EC50 with negative sign
Method: as §1, §2

mouse Tacr2 = target: T2, mouse Tacr2 (Mus musculus, UniProt P30549); assay: IP3 assay in primary brown adipocytes transfected with Tacr2; assay type: cell-based; settings: 24 hours NKA treatment; Tacr2 over-expressing primary brown adipocytes; FIG. 3a
T2 construct: host or cells: primary brown adipocytes
T2 sequence (P30549 1-384): T1 sequence (P30549 1-384)
Method: Primary brown pre-adipocytes were isolated from intrascapular brown fat pads by collagenase type 1 (Worthington, NJ, USA) digestion on horizontal shaking water bath at 37° C. for 50 minutes with vortexing every 10 minutes. Collagenase was diluted in KRB with free fatty acid free BSA (Sigma-Aldrich, Denmark) in a ratio of 1:10. The enzymatic reaction was stopped by addition of growth media, and cell suspension was pelleted, resuspended in growth media before straining through a 40 μm nylon mesh (VWR, Denmark) to avoid tissue clumps. Pre-adipocytes were expanded in DMEM (Gibco, Denmark) supplemented with 10% fetal bovine serum (Invitrogen, Denmark) and 1% penicillin and streptomycin (Lonza, Denmark) until confluency. […]
Primary brown adipocytes were loaded with 5 μCi myo-[3H]inositol (Perkin Elmer, Denmark) in full maintenance media at the day after electroporation, and incubated overnight. […] After treatment, cells were extracted with 10 mM formic acid and cell membranes were captured using poly-L-lysine coated SPA beads (Perkin Elmer, Denmark), and analyzed on Top Counter (Perkin Elmer, Denmark).
(§3) Oxygen consumption was measured using the Seahorse XF-96 Flux Analyzer (Seahorse Bioscience, Denmark). […] All readings were performed over a two minutes period and mixing was performed for three minutes. […]

primary brown adipocytes = assay: Oxygen consumption rate, Seahorse XF-96 Flux Analyzer; assay type: cell-based; settings: 72 hours NKA treatment; primary brown adipocytes not transfected with Tacr2; FIG. 3b
Method: Primary brown pre-adipocytes were isolated from intrascapular brown fat pads by collagenase type 1 (Worthington, NJ, USA) digestion on horizontal shaking water bath at 37° C. for 50 minutes with vortexing every 10 minutes. Collagenase was diluted in KRB with free fatty acid free BSA (Sigma-Aldrich, Denmark) in a ratio of 1:10. The enzymatic reaction was stopped by addition of growth media, and cell suspension was pelleted, resuspended in growth media before straining through a 40 μm nylon mesh (VWR, Denmark) to avoid tissue clumps. Pre-adipocytes were expanded in DMEM (Gibco, Denmark) supplemented with 10% fetal bovine serum (Invitrogen, Denmark) and 1% penicillin and streptomycin (Lonza, Denmark) until confluency. The day after reach of confluency, primary brown pre-adipocytes were differentiated using a cocktail consisting of insulin (0.5 mg/mL), rosiglitazone (1 mM), dexamethasone (100 μM), IBMX (50 mM) and T3 (1 μM) for two days, thereafter cells were maintained in growth media containing insulin and T3 throughout the experimental period. Maintenance media was changed every second day. Cells were grown at 37° C. with 10% CO2.
as §3

[3] = test system: diet induced obese (DIO) mice; assay: Neurokinin A treatment of diet induced obese mice; assay type: in vivo, mice (male C57Bl/6)
Method: (§4) Oxygen consumption was measured every 5 minutes using the PhenoMaster. Data is representative of all days and show means±SEM of n=6. (b) Weight was measured every day throughout the experimental period. […] (c) Insulin tolerance test was performed in 3h fasted mice the day after treatment, and mice received 1 UI per kg lean body mass insulin intraperitoneal. […] (d) The three major adipose tissues were harvested weighed upon termination of experiment.
All animal experiments were performed according to Danish animal legislation, with ad libitum access to food and water and 12 hour light-dark cycle. Male C57Bl/6 mice were purchased from Janvier (Denmark) at four weeks of age and acclimatized for one week prior to experimentation. For high fat diet studies, male C57Bl/6 mice were housed at room temperature and fed a 60% high fat diet (Research diets, D12492, Denmark) for 18 weeks. After being fed this diet, the mice were highly obese, typically having a body weight in the range of 42 to 45 g. These mice may also be referred to as diet induced obese (DIO) mice. Mice were randomized according to their weight and body composition measured by MRI scan (EchoMRI, TX, USA) before single-housing for at least one week prior treatment. Oxygen consumption and […] (RER) were measured using PhenoMaster (TSE-Systems, Germany). Food consumption was manually assessed every second day.
For treatment, NKA was diluted in Gelofusine® (B. Braun, DK) prior to subcutaneous injection. Mice were treated twice daily for 9 days.

[4] = test system: diet induced obese (DIO) mice; assay: Insulin tolerance test after Neurokinin A treatment; assay type: in vivo, mice (male C57Bl/6); settings: vs control mice
Method: as §4
Mice were fasted for 3 hours prior to intra peritoneal insulin tolerance test (IPITT). Insulin (Actrapid, Novo Nordisk, DK) was dosed at 1 IU per kg lean body mass measured prior to treatment. Blood glucose was determined using glucometer from Roche. Lower blood glucose levels indicate greater insulin sensitivity.

Tacr2 [5] = target: T3, Tacr2 (Homo sapiens, UniProt P21452); settings: Sp Hs; cited from earlier work
T3 sequence (P21452 1-398): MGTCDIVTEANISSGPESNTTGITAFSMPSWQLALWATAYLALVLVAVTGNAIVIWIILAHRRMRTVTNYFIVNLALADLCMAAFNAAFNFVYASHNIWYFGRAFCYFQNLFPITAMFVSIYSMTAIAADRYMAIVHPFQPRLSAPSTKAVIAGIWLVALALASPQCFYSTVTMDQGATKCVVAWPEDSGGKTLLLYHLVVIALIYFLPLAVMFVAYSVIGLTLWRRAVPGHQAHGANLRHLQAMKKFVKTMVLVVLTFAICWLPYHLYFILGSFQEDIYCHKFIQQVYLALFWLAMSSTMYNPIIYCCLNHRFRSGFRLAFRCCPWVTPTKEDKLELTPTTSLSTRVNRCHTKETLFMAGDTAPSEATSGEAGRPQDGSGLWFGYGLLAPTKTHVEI

Tacr2 [6] = target: T4, Tacr2 (Rattus norvegicus, UniProt P16610); settings: Sp Rn; cited from earlier work
T4 sequence (P16610 1-390): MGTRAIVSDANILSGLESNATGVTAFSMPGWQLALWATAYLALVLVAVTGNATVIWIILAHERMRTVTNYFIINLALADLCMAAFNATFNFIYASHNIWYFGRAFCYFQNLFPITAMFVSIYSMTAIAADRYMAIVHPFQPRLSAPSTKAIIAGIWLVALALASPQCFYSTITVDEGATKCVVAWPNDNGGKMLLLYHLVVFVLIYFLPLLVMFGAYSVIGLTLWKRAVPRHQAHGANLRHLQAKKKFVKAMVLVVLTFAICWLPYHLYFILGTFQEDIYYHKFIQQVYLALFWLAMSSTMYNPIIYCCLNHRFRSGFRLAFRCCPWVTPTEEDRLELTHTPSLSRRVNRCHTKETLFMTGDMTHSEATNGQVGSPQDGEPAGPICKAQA

Tacr2 [7] = target: T4, Tacr2; settings: Sp Rn; cited from earlier work; remark: listed apart in the source
Tacr2 [8] = settings: Sp Cp; cited from earlier work

For Nc1nc(CC(=O)Nc2ccc(CCNC[C@H](O)c3ccccc3)cc2)cs1 [Mirabegron], the “activation of human brown adipose” value (human brown adipose; proof-of-concept studies) is listed as “activate human brown adipose” and the “blood pressure and heart rate” value (human brown adipose; side effects) is listed as “elevated blood pressure and heart rate”.
Work on CSCC[C@H](NC(=O)[C@H](CC(C)C)NC(=O)CNC(=O)[C@@H](NC(=O)[C@H](Cc1ccccc1)NC(=O)[C@H](CO)NC(=O)[C@H](CC(=O)O)NC(=O)[C@@H](NC(=O)[C@H](CCCCN)NC(=O)[C@@H](N)Cc1cnc[nH]1)[C@@H](C)O)C(C)C)C(N)=O [NKA, Neurokinin A] yielded an EC50 (mTacr2 [1]) of 8.09 nM, an EC50 (mTacr2 [2]; LogEC50, mTacr2, 0.2% BSA) of 3.54 nM and an EC50 (mTacr2 [2]; LogEC50, mTacr2, 2% BSA) of 12.3 nM. The BSA binding affinity (mTacr2 [2]; from Tacr2 activation at 0.2% vs 2% BSA) was “low BSA binding affinity”, the Hill-Slope (mTacr2 [2]; mTacr2, 0.2% BSA) was 1.082 and the Top (mTacr2 [2]; mTacr2, 0.2% BSA) was 1788. For the same compound, the Bottom (mTacr2 [2]; mTacr2, 2% BSA) was 111.3, the Hill-Slope (mTacr2 [2]; mTacr2, 2% BSA) was 0.8378 and the Top (mTacr2 [2]; mTacr2, 2% BSA) was 1719. The IP3 levels (mouse Tacr2) was “increases IP3 levels”, the “oxygen consumption rate (OCR)” value (primary brown adipocytes) was “increases oxygen consumption rate (OCR)” and the metabolic parameters ([3]; 1 mg/kg NKA s.c. twice daily for 9 days) was “improved metabolic parameters”. For the same compound, the “calorie burning (oxygen consumption)” value ([3]; 1 mg/kg NKA s.c. twice daily for 9 days, FIG. 4a) was “increased calorie burning”, the body weight ([3]; 1 mg/kg NKA s.c. twice daily for 9 days, FIG. 4b) was “significant reduction in body weight” and the “desensitization to NKA” value ([3]; 9 consecutive days of treatment, FIG. 4a) was “not accompanied by desensitization to NKA”. For the same compound, the adipose tissue weight ([3]; tissues harvested upon termination, FIG. 4d) was “reduction of white adipose tissue and not brown fat”, the “blood glucose level after insulin treatment (ITT)” value ([4]; 3 h fasted, 1 IU insulin per kg lean body mass i.p., day after treatment, FIG. 4c) was “significant lower blood glucose level after insulin treatment” and the “insulin sensitivity (ITT)” value [4] was “higher insulin sensitivity”. For the same compound, the “return of blood glucose to basal levels after Cmin (ITT)” value [4] was “return to basal levels at a slower rate”.
For CSCC[C@H](NC(=O)[C@H](CC(C)C)NC(=O)CNC(=O)[C@@H](NC(=O)[C@H](Cc1ccccc1)NC(=O)[C@H](Cc1ccccc1)NC(=O)[C@H](CC(=O)O)NC(=O)[C@H](Cc1c[nH]cn1)NC(=O)[C@H](CCSC)NC(=O)[C@@H](N)CC(=O)O)C(C)C)C(N)=O [NKB, neurokinin B], the Affinity (Tacr2 [5]) is listed as 5.0-7.7 pKi.
In the case of “Neurokinin A (3-10) [GR64349, Neurokinin A (3-10) [Lys3, Gly8-(R)-γ-Lactam-Leu9]]”, the Affinity (Tacr2 [6]) is listed as 8.4 pEC50.
In the case of “[Lys5,Me-Leu9, Nle10]NKA-(4-10) [[Lys5,Me-Leu9,Nle10]NKA-(4-10), DKFVGXJ, X = Me-Leu; J = Nle]”, the Affinity (Tacr2 [7]) is given as 8.8-9.4 pIC50.
In the case of [βAla8]neurokinin A-(4-10), the Affinity (Tacr2 [5]) is listed as 6.0 pKd.
In the case of “hemokinin 1 (RSRTRQFYGLM; Hemokinin; UniProt Q99N14 56-66, looked up) [mammalian tachykinin (Mouse)]”, the Affinity (Tacr2 [5]) is listed as 6.3 pKi.
In the case of “neuropeptide K (DADSSIEKQVALLKALYGHGQISHKRHKTDSFVGLM; Neuropeptide K; UniProt P20366 72-107, looked up) [natural agonist of Tacr2 (Human, Rat)]”, the Affinity (Tacr2 [8]) is listed as 8.8 pEC50.
In the case of neuropeptide γ, the Affinity (Tacr2 [8]) is given as 9.5 pEC50.
